In patent US20250170248A1, “SMARCA DEGRADERS AND USES THEREOF” (Kymera Therapeutics, Inc., priority 2021, published 2025):

Experiments:
Assay type in all cases: cell-based
SMARCA2 [1] = biological target: T1, SMARCA2 (Homo sapiens, UniProt P51531); test: MSD SMARCA2 degradation in A549 cell line; details: for Dmax: A549, A549 cells; for Dmax / DC50: 24 h; for DC50 / SMARCA2 MSD A549 degradation 24 h: Average Dmax %: A549 cells; for DC50: read-out: SMARCA2 MSD A549 degradation 24 h: Average external-Abs DC50
T1 sequence (P51531 whole entry): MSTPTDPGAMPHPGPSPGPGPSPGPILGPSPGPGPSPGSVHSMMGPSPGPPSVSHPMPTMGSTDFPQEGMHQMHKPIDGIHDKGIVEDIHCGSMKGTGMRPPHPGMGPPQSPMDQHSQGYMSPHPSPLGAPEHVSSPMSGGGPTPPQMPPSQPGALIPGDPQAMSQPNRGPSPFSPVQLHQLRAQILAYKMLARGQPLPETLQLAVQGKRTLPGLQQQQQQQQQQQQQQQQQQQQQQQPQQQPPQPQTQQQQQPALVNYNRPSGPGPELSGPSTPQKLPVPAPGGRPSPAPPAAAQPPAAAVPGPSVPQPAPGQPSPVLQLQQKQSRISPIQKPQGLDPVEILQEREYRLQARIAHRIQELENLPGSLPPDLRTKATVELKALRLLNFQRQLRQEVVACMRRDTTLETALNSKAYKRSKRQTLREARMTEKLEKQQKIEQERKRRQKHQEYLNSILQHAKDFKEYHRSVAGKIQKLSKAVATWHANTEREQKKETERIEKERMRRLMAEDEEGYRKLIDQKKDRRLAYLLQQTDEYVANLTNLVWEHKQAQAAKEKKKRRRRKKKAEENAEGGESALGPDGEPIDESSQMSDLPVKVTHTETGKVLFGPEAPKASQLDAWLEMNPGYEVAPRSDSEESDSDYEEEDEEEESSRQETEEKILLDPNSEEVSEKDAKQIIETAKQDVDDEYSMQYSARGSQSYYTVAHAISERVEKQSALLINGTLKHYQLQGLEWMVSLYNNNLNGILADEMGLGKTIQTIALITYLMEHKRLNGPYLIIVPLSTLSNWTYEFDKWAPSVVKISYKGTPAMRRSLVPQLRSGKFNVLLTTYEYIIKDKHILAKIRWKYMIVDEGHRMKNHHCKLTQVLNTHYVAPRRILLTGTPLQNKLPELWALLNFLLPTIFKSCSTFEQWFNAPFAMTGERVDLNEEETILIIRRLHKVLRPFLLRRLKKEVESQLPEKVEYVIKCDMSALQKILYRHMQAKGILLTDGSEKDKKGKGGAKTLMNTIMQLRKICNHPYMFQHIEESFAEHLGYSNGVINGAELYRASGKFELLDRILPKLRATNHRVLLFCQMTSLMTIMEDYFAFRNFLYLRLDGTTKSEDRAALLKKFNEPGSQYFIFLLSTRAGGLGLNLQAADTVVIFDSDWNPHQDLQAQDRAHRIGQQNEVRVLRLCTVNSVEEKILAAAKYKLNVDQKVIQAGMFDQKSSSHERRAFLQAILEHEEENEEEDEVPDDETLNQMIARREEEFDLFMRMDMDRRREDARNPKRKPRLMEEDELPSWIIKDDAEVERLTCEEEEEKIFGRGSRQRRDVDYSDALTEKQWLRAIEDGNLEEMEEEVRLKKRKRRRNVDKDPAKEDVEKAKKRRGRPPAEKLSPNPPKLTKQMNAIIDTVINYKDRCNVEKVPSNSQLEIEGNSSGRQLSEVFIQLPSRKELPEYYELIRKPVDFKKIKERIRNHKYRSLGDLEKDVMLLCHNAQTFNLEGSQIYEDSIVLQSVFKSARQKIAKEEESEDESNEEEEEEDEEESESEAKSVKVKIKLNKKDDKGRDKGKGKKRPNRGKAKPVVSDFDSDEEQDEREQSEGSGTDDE
In short: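 A549 cells treated 24 h with compound, 3-fold series from 1000 nM. Lysates captured on MSD plates and SMARCA2 quantified with anti-SMARCA2 and SULFO-TAG secondary antibodies (electrochemiluminescence). DC50 and Dmax (% degradation at 24 h) reported as letter bins.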

SMARCA2 [2] = biological target: T1, SMARCA2; test: SMARCA2 Western blot degradation in MV4-11 cells; design: SMARCA2/SMARCA4 protein degradation selectivity in MV4-11 cells; endogenous in cells; host or cells: MV4-11; details: for Dmax: MV4-11, MV4-11 cells, read-out: SMARCA2 MSD MV411 degradation 24 h: average Dmax %; for Dmax / DC50 / SMARCA2 MSD MV411 degradation 24 h: average Dmax %: 24 h; for DC50 / Selectivity in MV411 / SMARCA2 MSD MV411 degradation 24 h: average Dmax %: MV4-11 cells; for DC50: read-out: SMARCA2 MSD MV411 degradation 24 h: Mean external-Abs DC50; for Selectivity in MV411: SMARCA2/4 selectivity
SMARCA4 = biological target: T2, SMARCA4 (Homo sapiens, UniProt P51532); test: SMARCA4 Western blot degradation in MV4-11 cells; details: for Dmax: MV4-11, MV4-11 cells, read-out: SMARCA4 MSD MV411 degradation 24 h: average Dmax %; for Dmax / DC50: 24 h; for DC50 / SMARCA4 MSD MV411 degradation 24 h: average Dmax %: MV4-11 cells; for DC50: read-out: SMARCA4 MSD MV411 degradation 24 h: Mean external-Abs DC50
T2 construct: SMARCA2/SMARCA4 protein degradation selectivity in MV4-11 cells; endogenous in cells; host or cells: MV4-11
T2 sequence (P51532 whole entry): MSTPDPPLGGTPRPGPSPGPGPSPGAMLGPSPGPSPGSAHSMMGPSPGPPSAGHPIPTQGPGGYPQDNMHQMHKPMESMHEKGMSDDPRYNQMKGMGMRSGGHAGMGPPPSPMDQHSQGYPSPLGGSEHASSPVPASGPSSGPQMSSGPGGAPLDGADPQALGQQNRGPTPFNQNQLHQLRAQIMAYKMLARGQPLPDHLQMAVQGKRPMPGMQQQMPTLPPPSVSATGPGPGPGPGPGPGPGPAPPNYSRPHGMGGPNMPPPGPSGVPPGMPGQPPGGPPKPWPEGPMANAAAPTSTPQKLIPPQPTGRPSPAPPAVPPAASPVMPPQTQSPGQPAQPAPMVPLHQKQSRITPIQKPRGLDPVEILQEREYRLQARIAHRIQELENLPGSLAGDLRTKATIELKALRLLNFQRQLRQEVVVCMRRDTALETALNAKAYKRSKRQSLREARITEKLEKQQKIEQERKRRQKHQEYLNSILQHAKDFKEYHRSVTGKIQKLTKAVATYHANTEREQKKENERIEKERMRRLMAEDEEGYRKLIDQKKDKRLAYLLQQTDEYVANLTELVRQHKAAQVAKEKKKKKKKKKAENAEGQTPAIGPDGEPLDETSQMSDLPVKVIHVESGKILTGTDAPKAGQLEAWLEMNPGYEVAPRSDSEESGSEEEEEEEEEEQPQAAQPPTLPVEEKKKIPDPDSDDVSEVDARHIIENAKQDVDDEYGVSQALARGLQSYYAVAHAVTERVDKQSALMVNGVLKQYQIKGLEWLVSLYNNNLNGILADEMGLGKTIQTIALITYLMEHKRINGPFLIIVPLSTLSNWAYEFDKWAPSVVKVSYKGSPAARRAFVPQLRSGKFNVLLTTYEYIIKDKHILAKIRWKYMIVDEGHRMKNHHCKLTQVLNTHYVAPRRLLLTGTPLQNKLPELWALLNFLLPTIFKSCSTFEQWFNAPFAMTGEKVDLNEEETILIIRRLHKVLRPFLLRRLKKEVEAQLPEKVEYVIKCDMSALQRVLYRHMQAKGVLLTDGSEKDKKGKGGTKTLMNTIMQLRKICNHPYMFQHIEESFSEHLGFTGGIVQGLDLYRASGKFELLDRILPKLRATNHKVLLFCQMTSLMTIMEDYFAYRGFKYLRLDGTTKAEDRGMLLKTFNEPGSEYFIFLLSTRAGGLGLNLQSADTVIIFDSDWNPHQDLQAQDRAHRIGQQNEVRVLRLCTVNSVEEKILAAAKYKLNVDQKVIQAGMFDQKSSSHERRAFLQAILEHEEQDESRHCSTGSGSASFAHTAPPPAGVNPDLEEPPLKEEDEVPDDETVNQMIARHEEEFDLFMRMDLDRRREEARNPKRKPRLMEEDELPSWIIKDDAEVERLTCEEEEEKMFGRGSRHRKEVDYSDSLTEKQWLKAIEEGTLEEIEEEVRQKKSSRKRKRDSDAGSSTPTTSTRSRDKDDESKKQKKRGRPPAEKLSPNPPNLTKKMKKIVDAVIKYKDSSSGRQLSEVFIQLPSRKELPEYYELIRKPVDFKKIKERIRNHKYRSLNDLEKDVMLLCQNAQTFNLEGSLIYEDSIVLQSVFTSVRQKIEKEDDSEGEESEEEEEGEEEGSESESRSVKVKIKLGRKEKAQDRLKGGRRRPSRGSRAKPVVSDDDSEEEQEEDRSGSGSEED
In short: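 MV4-11 cells (4×10^6/well) treated with compound for 24 h, lysed in RIPA with protease/phosphatase inhibitors, and SMARCA2, SMARCA4 and beta-actin detected by Western blot with LI-COR readout. Values reported as letter-coded DC50, 24 h Dmax % and SMARCA2/4 selectivity fold.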

SMILES	Dmax (SMARCA2 [1]) [%]	DC50 (SMARCA2 [1]) [nM]	Dmax (SMARCA2 [2]) [%]	DC50 (SMARCA2 [2]) [nM]	Selectivity in MV411 (SMARCA2 [2])	Dmax (SMARCA4) [%]	DC50 (SMARCA4) [nM]	SMARCA2 MSD A549 degradation 24 h: Average Dmax % (SMARCA2 [1])	SMARCA2 MSD MV411 degradation 24 h: average Dmax % (SMARCA2 [2])	SMARCA4 MSD MV411 degradation 24 h: average Dmax % (SMARCA4)
Cc1ncsc1-c1ccc(CNC(=O)[C@@H]2C[C@@H](O)CN2C(=O)[C@@H](NC(=O)N2CC3(CCC(N4CCC(c5cnc(N6CCc7[nH]c8nnc(-c9ccccc9O)cc8c7C6C)nc5)CC4)CC3)C2)C(C)(C)C)cc1 (some centres unmarked) [I-62]	70 to 90	> 100	< 50	> 100	C (C (10-100 fold))	< 50	> 100	–	–	–
Cc1ncsc1-c1ccc(CNC(=O)[C@@H]2C[C@@H](O)CN2C(=O)[C@@H](NC(=O)C2(F)CC2)C(C)(C)C)c(O[C@H]2CC[C@H](N3CCC(N4CCC(c5cnc(N6CCc7[nH]c8nnc(-c9ccccc9O)cc8c7[C@@H]6C)nc5)CC4)CC3)CC2)c1 (single isomer, unassigned) [I-47]	> 90	> 100	> 90	1 to 10	D (D (<10 fold))	> 90	1 to 10	–	–	–
C#Cc1ccc([C@H](C)NC(=O)[C@@H]2C[C@@H](O)CN2C(=O)[C@@H](NC(=O)N2CC3(CC(N4CCC(c5cnc(N6CCc7[nH]c8nnc(-c9ccccc9O)cc8c7[C@H]6C)nc5)CC4)C3)C2)C(C)(C)C)cc1 [I-151]	> 90	10 to 50	70 to 90	1 to 10	C (C (10-100 fold))	50 to 70	> 100	–	–	–
C#Cc1ccc(CNC(=O)[C@@H]2C[C@@H](O)CN2C(=O)[C@@H](NC(=O)N2CC3(CC(N4CCC(c5cnc(N6CCc7[nH]c8nnc(-c9ccccc9O)cc8c7[C@H]6CC)nc5)CC4)C3)C2)C(C)(C)C)cc1 [I-136]	> 90	10 to 50	70 to 90	1 to 10	C (C (10-100 fold))	70 to 90	> 100	–	–	–
CC#Cc1ccc(CNC(=O)[C@@H]2C[C@@H](O)CN2C(=O)[C@@H](NC(=O)N2CC3(CC(N4CCC(c5cnc(N6CCc7[nH]c8nnc(-c9ccccc9O)cc8c7[C@H]6C)nc5)CC4)C3)C2)C(C)(C)C)cc1 [I-121]	> 90	50 to 100	50 to 70	10 to 100	B (B (>100-500 fold))	< 50	> 100	–	–	–
Cc1ncsc1-c1ccc(CNC(=O)[C@@H]2C[C@@H](O)CN2C(=O)[C@@H](NC(=O)[C@H]2CC3(C2)C[C@H](N2CCC(c4ccnc(N5CCN6c7cc(-c8ccccc8O)nnc7NC[C@H]6C5)n4)CC2)C3)C(C)(C)C)cc1 (single isomer, unassigned) [I-27]	–	10 to 50	–	1 to 10	A (A (>500 fold))	–	> 100	B (B (>70-90% degradation))	A (A (>90% degradation))	D (D (<50% degradation))
Cc1ncsc1-c1ccc(CNC(=O)[C@@H]2C[C@@H](O)CN2C(=O)[C@@H](NC(=O)C2(F)CC2)C(C)(C)C)c(OCCCCN2CCC(c3cnc(N4CCN5c6cc(-c7ccccc7O)nnc6NC[C@H]5C4)nc3)CC2)c1 (single isomer, unassigned) [I-49]	> 90	10 to 50	> 90	< 1	C (C (10-100 fold))	> 90	1 to 10	–	–	–

Further lines, results first:

Dmax (SMARCA2 [1]) [%]	DC50 (SMARCA2 [1]) [nM]	Dmax (SMARCA2 [2]) [%]	DC50 (SMARCA2 [2]) [nM]	Selectivity in MV411 (SMARCA2 [2])	Dmax (SMARCA4) [%]	DC50 (SMARCA4) [nM]	SMARCA2 MSD A549 degradation 24 h: Average Dmax % (SMARCA2 [1])	SMARCA2 MSD MV411 degradation 24 h: average Dmax % (SMARCA2 [2])	SMARCA4 MSD MV411 degradation 24 h: average Dmax % (SMARCA4)	SMILES
–	> 100	–	10 to 100	C (C (10-100 fold))	–	> 100	A (A (>90% degradation))	B (B (>70-90% degradation))	D (D (<50% degradation))	C#Cc1ccc(CNC(=O)[C@@H]2C[C@@H](O)CN2C(=O)[C@@H](NC(=O)[C@H]2CCC3(CC2)C[C@H](N2CCC(N4CC5(CC(N6CCN7c8cc(-c9ccccc9O)nnc8NC[C@H]7C6)C5)C4)CC2)C3)C(C)(C)C)c(Cl)c1 (single isomer, unassigned) [I-238]
–	> 100	–	10 to 100	B (B (>100-500 fold))	–	> 100	A (A (>90% degradation))	B (B (>70-90% degradation))	C (C (50-70% degradation))	C#Cc1ccc(CNC(=O)[C@@H]2C[C@@H](O)CN2C(=O)[C@@H](NC(=O)[C@H]2CCC3(CC2)C[C@H](N2CCC(N4CCC(N5CCN6c7cc(-c8ccccc8O)nnc7NC[C@H]6C5)CC4)CC2)C3)C(C)(C)C)c(OC)c1 (some centres unmarked) [I-178]
< 50	> 100	< 50	> 100	C (C (10-100 fold))	< 50	> 100	–	–	–	C#Cc1ccc(CNC(=O)[C@@H]2C[C@@H](O)CN2C(=O)[C@H](NC(=O)N2CC3(CC(N4CCC(c5cnc(N6CCc7[nH]c8nnc(-c9ccccc9O)cc8c7[C@H]6C)nc5)CC4)C3)C2)C(C)(C)CCO)c(Cl)c1 (single isomer, unassigned) [I-316]
> 90	> 100	70 to 90	1 to 10	C (C (10-100 fold))	50 to 70	> 100	–	–	–	C#Cc1ccc(CNC(=O)[C@@H]2C[C@@H](O)CN2C(=O)[C@@H](NC(=O)C2CCN(C[C@H]3CC[C@H](N4CCc5[nH]c6nnc(-c7ccccc7O)cc6c5[C@H]4C)CC3)CC2)C(C)(C)C)cc1 (single isomer, unassigned) [I-202]
70 to 90	> 100	< 50	> 100	C (C (10-100 fold))	< 50	> 100	–	–	–	C#Cc1ccc(CNC(=O)[C@@H]2C[C@@H](O)CN2C(=O)[C@@H](NC(=O)N2CCC(N3CCC(N4CC5(CC(N6CCc7[nH]c8nnc(-c9ccccc9O)cc8c7[C@H]6C)C5)C4)CC3)CC2)C(C)(C)C)cc1 [I-208]
> 90	10 to 50	70 to 90	1 to 10	C (C (10-100 fold))	50 to 70	> 100	–	–	–	C#Cc1ccc(CNC(=O)[C@@H]2C[C@@H](O)CN2C(=O)[C@@H](NC(=O)N2CC3(CC(N4CCC(c5cnc(N6CCc7[nH]c8nnc(-c9ccccc9O)cc8c7[C@H]6C)s5)CC4)C3)C2)C(C)(C)C)cc1 [I-323]
> 90	> 100	70 to 90	10 to 100	B (B (>100-500 fold))	< 50	> 100	–	–	–	C#Cc1ccc(CNC(=O)[C@@H]2C[C@@H](O)CN2C(=O)[C@@H](NC(=O)[C@H]2CCC3(CC2)C[C@H](N2CCC(N4CCC(N5CCN6c7cc(-c8ccccc8O)nnc7NC[C@H]6C5)CC4)CC2)C3)C(C)(C)C)cc1 (single isomer, unassigned) [I-174]
